Experimental findings from patent US10494332B2, “Protein tyrosine phosphatases or SHP2 inhibitors and uses thereof” (Indiana University Research and Technology Corporation, priority 2015, dated 2019) are described below.

One experiment addresses mPTPA (Mycobacterium tuberculosis, UniProt P9WIA1). In words: biochemical. As to conditions: IC50 mPTPA.
A further experiment has as its target T1, LMWPTP (Homo sapiens, UniProt P24666).
T1 sequence (P24666 1-158): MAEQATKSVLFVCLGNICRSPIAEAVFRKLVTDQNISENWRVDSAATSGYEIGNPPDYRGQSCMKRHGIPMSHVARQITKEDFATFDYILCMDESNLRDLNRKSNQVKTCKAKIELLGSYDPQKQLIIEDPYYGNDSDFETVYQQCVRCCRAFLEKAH
In words: PTP inhibition assay (pNPP). It counts as biochemical.

For a further experiment, the target named is T2, SHP2 (Homo sapiens, UniProt Q06124).
T2 sequence (Q06124 224-528): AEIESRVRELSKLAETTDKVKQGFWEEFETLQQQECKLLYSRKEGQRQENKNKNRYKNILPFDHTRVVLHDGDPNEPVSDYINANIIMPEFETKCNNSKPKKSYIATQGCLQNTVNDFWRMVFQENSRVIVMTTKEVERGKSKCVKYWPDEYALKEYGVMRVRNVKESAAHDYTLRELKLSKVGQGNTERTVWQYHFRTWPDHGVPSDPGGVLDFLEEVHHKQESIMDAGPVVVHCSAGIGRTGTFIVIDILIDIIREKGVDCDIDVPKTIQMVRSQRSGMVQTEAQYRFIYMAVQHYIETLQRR
Put plainly: SHP2 phosphatase inhibition assay (pNPP). It counts as biochemical. As to conditions: for IC50: Example 9: SHP2 catalytic domain 20 nM, pNPP 3 mM, pH 7.0, 25° C., read-out: IC50 SHP2.

The subject of experiment [1] is H1975 non-small cell lung cancer (NSCLC) cell line. Put plainly: MTT cell proliferation assay. It counts as cell-based, human. As to conditions: 20 μM and 40 μM, 2 days. Here is the method: (§1) Human non-small cell lung carcinoma cell line H1975 was cultured at 37° C. and 5% CO2 in RPMI-1640 (Corning) supplemented with 10% fetal bovine serum (HyClone). Human breast cancer cell line MDA-MB-231 was cultured in DMEM supplemented with 10% fetal bovine serum. For cell proliferation assay, 2˜3×10^3 cells were seeded in each well of 96-well plates. After treating cells with compounds for 2 days, cells were incubated with 50 μg/ml MTT (3-(4,5-Dimethylthiazol-2-yl)-2,5-diphenyltetrazolium bromide) for ˜3-4 hours. Then, the culture medium was removed, DMSO was added to dissolve the formazan crystals. Wells containing only media were used for background correction. The optical density was measured spectrophotometrically at 540 nm. For signaling analysis, cells were serum-starved overnight followed by treatment with vehicle or compounds for 3 hours, and then either left un-stimulated or stimulated with 5 μg/ml EGF or 10 nM PMA (Sigma) for indicated time. Cells were lysed and the lysates were electrophoresed on a 10% polyacrylamide gel, and then transferred to a nitrocellulose membrane, and probed with anti-phospho-ERK1/2 and anti-ERK1/2 (Cell Signaling) antibodies followed by incubation with horseradish peroxidase-conjugated secondary antibodies. The blots were developed by the enhanced chemiluminescence technique using the SuperSignal West Pico Chemiluminescent substrate (Pierce).

Another experiment deals with PTPμ (Homo sapiens, UniProt P28827). Put plainly: biochemical.
In another experiment the target is T3, PP5 (Homo sapiens, UniProt P53041).
T3 sequence (P53041 1-499): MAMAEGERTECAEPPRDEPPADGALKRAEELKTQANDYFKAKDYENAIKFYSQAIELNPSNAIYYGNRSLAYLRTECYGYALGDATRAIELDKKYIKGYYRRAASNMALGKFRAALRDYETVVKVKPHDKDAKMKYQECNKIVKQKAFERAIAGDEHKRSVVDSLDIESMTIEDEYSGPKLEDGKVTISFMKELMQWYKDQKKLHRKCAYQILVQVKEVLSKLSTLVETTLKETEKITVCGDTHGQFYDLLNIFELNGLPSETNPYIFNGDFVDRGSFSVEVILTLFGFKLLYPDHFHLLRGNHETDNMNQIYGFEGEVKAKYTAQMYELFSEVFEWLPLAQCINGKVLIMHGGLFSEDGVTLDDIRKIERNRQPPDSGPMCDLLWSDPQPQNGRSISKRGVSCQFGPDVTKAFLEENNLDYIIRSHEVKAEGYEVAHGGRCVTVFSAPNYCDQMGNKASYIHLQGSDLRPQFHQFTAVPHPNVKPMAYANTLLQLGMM
Put plainly: biochemical.

Experiment [2] has as its system MDA-MB-231 breast cancer cell line. In words: MTT cell proliferation assay. The class given is cell-based, human. As to conditions: 20 μM and 40 μM, 2 days. Here is the method:
as §1
A general note: Tetrazolium assays rely on reduction of a dye to a coloured formazan, in cell work by metabolically active cells.

A further experiment addresses TbPTP1 (Trypanosoma brucei brucei, UniProt Q38AT7). In words: PTP inhibition assay (pNPP). It counts as biochemical. As to conditions: pH 7.0, 25° C.
For a further experiment, the target named is T4, PEST (Homo sapiens, UniProt Q05209).
T4 sequence (Q05209 1-780): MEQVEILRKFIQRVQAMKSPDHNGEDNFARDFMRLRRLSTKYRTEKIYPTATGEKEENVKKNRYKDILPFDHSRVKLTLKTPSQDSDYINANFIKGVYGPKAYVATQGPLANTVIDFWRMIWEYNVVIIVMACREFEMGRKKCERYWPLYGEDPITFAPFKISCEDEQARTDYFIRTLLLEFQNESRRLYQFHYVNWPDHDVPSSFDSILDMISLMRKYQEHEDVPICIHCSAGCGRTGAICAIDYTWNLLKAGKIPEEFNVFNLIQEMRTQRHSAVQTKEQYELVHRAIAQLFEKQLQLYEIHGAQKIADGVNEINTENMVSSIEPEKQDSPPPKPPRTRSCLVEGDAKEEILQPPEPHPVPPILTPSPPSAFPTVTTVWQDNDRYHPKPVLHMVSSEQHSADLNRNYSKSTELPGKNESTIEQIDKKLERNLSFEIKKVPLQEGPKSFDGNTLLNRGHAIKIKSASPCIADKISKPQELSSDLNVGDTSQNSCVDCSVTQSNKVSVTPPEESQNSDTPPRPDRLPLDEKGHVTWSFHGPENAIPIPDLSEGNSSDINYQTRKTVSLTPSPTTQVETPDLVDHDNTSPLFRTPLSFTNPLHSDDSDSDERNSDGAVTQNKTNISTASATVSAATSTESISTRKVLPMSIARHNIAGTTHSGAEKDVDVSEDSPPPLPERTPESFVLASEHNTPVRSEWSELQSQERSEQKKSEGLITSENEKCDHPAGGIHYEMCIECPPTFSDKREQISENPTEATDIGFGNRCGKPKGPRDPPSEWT
In words: PTP inhibition assay (pNPP). It counts as biochemical.

The target of a further experiment is FAP1 (Homo sapiens, UniProt Q12923). In words: PTP inhibition assay (pNPP). The following applies: IC50 FAP1. It counts as biochemical.
In a further experiment the target is T5, VHX (Homo sapiens, UniProt Q9NRW4).
T5 sequence (Q9NRW4 1-184): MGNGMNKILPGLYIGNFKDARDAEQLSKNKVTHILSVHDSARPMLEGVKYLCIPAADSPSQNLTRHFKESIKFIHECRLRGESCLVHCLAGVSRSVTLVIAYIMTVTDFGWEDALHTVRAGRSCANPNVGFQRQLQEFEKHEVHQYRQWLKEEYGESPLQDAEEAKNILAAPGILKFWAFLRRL
Put plainly: PTP inhibition assay (pNPP). The class given is biochemical. The following applies: IC50 VHX, pNPP at Km, pH 7.0, 25° C.

The next experiment deals with T6, Ssu72 (Homo sapiens, UniProt Q9NP77).
T6 sequence (Q9NP77 1-194): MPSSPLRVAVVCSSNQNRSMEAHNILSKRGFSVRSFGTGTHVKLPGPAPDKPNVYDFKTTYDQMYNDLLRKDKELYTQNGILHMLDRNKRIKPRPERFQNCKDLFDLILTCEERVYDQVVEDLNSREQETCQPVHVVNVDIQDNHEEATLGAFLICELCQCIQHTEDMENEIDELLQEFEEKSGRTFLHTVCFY
In words: PTP inhibition assay (pNPP). The class given is biochemical. As to conditions: IC50 Ssu72.

Another experiment concerns the target SHP1 (Homo sapiens, UniProt P29350). In words: PTP inhibition assay (pNPP). The class given is biochemical. The following applies: pNPP at Km, pH 7.0, 25° C.
Another experiment concerns the target T7, STEP (Homo sapiens, UniProt P54829).
T7 sequence (P54829 1-565): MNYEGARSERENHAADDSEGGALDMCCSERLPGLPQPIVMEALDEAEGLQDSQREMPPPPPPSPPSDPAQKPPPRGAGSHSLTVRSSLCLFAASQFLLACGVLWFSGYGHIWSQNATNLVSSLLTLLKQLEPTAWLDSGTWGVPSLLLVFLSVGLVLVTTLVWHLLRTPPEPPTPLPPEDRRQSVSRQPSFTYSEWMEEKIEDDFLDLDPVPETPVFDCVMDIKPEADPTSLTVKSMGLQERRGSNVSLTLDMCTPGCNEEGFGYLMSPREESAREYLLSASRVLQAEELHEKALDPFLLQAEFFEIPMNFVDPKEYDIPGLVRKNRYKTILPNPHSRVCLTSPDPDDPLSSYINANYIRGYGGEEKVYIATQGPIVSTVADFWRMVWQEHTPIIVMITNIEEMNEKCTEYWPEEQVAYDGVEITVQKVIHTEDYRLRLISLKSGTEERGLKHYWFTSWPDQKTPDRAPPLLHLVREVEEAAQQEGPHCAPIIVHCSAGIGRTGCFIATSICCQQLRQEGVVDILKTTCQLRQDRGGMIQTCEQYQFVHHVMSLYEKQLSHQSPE
Put plainly: PTP inhibition assay (pNPP). It counts as biochemical. The following applies: IC50 STEP, pNPP at Km, pH 7.0, 25° C.

Another experiment has as its target T8, Laforin (Homo sapiens, UniProt O95278).
T8 sequence (O95278 1-331): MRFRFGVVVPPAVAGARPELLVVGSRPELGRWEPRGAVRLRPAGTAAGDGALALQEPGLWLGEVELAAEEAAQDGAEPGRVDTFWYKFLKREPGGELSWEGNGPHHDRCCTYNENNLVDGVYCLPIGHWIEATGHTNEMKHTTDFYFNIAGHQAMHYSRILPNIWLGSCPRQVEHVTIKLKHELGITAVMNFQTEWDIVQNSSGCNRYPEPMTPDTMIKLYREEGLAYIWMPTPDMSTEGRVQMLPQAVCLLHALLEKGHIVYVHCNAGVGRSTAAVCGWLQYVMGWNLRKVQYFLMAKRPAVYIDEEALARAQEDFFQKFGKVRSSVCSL
Put plainly: PTP inhibition assay (pNPP). It counts as biochemical. As to conditions: pNPP at Km, pH 7.0, 25° C.; read-out: IC50 Laforin.

Entries after “also recorded” stand apart in the source; their conditions may differ. Read-outs that look alike come from different tables or passages of the source.

PTPμ, sequence (P28827 21-1452): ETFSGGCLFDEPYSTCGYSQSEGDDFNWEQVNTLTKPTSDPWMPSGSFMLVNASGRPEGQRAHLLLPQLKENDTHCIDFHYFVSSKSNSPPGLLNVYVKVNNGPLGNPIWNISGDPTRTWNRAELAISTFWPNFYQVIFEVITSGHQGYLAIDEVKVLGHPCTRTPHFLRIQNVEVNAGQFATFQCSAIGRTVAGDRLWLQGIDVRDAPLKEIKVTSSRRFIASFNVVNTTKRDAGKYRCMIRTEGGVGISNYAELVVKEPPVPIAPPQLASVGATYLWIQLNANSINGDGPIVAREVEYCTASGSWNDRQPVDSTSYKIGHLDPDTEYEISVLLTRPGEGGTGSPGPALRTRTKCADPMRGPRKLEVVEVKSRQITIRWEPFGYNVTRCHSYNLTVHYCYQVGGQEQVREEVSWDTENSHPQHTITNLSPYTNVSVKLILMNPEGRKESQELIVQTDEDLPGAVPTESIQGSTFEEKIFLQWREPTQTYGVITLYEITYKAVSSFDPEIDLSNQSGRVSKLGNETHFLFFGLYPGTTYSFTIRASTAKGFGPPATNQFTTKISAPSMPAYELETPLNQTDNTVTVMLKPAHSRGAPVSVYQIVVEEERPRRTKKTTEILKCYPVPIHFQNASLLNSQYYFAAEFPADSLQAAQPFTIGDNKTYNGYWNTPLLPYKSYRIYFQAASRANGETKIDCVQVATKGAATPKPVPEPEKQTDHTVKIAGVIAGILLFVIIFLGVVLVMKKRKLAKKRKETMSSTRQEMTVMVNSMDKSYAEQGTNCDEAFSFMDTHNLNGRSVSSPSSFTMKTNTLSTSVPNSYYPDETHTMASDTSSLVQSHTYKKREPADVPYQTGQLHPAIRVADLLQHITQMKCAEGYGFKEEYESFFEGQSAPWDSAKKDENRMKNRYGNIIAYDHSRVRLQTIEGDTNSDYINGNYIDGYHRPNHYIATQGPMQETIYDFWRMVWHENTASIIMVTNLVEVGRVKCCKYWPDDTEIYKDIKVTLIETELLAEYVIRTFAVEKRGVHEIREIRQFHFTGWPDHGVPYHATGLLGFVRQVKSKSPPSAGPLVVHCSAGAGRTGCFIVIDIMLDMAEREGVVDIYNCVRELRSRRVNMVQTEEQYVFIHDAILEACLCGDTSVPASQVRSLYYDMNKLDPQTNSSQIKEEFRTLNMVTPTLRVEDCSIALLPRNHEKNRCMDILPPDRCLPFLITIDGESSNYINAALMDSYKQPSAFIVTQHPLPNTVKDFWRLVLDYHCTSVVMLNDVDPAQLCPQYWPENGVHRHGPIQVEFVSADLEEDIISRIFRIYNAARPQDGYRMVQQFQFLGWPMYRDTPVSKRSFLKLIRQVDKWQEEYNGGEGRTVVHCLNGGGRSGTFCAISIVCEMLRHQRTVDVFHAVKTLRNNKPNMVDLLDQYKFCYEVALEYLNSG
TbPTP1, sequence (Q38AT7 entry or part of it): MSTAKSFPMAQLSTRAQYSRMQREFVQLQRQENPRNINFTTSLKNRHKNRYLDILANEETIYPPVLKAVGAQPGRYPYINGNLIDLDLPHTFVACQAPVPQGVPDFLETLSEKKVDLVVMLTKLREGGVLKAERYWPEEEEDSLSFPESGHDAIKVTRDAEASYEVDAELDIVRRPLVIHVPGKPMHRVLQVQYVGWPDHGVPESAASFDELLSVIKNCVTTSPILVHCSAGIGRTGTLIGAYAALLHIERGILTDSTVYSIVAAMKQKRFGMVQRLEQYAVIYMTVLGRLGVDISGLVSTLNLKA
SHP1, sequence (P29350 whole entry): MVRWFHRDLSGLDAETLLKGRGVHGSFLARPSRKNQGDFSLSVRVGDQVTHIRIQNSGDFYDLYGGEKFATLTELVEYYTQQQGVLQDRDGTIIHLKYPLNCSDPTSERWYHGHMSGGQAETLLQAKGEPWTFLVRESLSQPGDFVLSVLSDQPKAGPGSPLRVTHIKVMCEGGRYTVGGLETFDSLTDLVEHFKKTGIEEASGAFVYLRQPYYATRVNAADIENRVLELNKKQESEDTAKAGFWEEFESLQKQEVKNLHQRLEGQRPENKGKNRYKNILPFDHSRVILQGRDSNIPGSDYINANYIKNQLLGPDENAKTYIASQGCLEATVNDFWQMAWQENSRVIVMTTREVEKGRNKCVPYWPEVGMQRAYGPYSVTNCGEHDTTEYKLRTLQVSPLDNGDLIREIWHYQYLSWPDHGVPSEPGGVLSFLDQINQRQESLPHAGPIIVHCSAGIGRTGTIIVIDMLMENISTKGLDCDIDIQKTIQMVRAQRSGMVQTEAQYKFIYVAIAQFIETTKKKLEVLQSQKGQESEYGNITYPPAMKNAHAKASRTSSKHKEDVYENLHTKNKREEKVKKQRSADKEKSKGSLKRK
mPTPA, sequence (P9WIA1 whole entry): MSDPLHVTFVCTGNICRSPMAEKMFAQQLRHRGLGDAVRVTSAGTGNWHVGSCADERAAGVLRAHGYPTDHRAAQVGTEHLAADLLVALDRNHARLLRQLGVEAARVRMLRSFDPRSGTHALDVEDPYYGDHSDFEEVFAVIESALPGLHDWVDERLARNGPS
FAP1, sequence (Q12923 whole entry): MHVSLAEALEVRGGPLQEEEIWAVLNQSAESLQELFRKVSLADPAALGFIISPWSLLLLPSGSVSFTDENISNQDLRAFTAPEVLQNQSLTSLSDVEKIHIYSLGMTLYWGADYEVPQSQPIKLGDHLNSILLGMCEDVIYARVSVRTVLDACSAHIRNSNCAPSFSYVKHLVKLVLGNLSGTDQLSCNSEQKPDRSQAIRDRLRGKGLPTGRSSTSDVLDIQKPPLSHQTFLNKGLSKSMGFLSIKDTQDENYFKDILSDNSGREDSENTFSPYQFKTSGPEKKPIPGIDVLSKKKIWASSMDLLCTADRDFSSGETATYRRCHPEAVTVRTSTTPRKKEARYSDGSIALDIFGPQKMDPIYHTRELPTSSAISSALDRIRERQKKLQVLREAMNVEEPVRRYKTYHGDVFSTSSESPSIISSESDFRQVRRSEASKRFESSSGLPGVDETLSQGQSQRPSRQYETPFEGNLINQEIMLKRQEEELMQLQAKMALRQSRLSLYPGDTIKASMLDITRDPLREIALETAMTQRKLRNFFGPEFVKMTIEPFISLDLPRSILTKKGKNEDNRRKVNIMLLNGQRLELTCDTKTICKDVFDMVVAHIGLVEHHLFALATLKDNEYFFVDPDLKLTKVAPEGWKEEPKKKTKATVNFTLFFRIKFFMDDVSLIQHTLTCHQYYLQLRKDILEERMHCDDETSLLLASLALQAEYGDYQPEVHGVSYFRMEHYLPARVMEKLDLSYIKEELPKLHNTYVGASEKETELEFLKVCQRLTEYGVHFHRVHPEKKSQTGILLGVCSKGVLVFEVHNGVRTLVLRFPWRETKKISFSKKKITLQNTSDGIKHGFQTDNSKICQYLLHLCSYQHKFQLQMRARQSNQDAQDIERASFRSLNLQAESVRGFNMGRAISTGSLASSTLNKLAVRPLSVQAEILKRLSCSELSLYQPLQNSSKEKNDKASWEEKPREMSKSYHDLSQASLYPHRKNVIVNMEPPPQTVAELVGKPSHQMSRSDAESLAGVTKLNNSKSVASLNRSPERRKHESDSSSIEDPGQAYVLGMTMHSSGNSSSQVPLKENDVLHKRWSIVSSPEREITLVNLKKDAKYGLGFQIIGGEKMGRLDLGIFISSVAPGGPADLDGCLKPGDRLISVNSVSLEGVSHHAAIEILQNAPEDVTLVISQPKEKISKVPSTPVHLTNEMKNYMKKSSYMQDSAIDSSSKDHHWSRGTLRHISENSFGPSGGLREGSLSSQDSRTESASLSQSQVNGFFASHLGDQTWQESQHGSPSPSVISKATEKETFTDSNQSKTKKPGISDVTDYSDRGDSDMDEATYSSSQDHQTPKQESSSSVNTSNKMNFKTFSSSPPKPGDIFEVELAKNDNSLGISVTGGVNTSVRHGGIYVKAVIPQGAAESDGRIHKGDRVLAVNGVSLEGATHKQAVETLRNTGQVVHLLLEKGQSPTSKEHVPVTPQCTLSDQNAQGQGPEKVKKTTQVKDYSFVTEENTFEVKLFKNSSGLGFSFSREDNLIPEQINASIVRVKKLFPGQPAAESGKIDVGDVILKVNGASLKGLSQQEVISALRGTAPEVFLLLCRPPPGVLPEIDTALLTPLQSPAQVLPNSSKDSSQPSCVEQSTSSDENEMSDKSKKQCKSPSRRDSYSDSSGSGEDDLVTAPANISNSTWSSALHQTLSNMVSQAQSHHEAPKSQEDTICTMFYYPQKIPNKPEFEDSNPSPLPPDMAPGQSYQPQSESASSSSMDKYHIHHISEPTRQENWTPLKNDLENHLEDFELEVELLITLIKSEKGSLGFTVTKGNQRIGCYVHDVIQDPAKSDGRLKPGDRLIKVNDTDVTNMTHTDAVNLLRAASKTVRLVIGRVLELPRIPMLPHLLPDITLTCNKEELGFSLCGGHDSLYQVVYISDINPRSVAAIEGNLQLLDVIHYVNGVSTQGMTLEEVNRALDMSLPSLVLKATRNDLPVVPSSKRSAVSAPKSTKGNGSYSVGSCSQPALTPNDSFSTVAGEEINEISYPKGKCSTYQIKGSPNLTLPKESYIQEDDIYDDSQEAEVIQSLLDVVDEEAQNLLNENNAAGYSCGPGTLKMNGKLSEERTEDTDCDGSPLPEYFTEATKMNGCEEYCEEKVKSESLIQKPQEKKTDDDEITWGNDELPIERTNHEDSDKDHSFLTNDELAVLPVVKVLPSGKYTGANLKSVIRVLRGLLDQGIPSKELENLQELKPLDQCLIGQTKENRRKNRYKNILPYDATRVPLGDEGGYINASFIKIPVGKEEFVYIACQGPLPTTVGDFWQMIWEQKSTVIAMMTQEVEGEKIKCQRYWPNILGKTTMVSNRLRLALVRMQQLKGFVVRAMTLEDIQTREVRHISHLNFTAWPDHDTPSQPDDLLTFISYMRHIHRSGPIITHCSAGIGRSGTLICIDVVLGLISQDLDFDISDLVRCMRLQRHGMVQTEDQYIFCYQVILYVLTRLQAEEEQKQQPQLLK

Regarding `O=C(CS(=O)(=O)O)Nc1ccc(N2CCOCC2)cc1`, the IC50 (in general, the point on the concentration scale where inhibition reaches its midpoint) was found to be 2.2 µM on mPTPA and 63 µM on LMWPTP (pNPP at Km, pH 7.0, 25° C.).

With `O=C(Nc1ccc(NC(=O)C(c2ccccc2)S(=O)(=O)O)cc1)C(=O)Nc1ccc(-c2cccs2)cc1` (stereo not shown) [Compound 3, 2-oxo-2-((4-(2-oxo-2-((4-(thiophen-2-yl)phenyl)amino)acetamido)phenyl)amino)-1-phenylethanesulfonic acid], the half-inhibitory concentration (IC50) on SHP2 was 0.9 µM; against PTPμ it was over 10 µM; on PP5, over 10 µM. For the same compound, in experiment [1], the “H1975 cell proliferation (MTT)” value is “no significant effect”.

Turning to `O=C(Nc1ccc(NC(=O)C(c2ccccc2)S(=O)(=O)O)cc1)C(=O)Nc1cc(-c2ccc(Br)cc2)n[nH]1` (stereo not shown) [Compound 4, 2-((4-(2-((3-(4-bromophenyl)-1H-pyrazol-5-yl)amino)-2-oxoacetamido)phenyl)amino)-2-oxo-1-phenylethanesulfonic acid], the half-inhibitory concentration (IC50) on SHP2 is 0.73 ± 0.02 µM; against PTPμ, over 10 µM; at PP5, over 10 µM. Moreover, the “Fold selectivity for SHP2 against PTPs examined” value on SHP2 (cefsulodin: with the exception of SHP1) is recorded as at least 8 fold. The “H1975 cell proliferation (MTT)” value in experiment [1] is “no significant effect”.

Consider `CC(C)c1ccc(NC(=O)C(=O)Nc2ccc(NC(=O)C(c3ccccc3)S(=O)(=O)O)cc2)cc1` (stereo not shown) [Compound 6, 2-((4-(2-((4-isopropylphenyl)amino)-2-oxoacetamido)phenyl)amino)-2-oxo-1-phenylethanesulfonic acid], for which the IC50 at SHP2 was 2.33 ± 0.04 µM. The “H1975 cell proliferation (MTT)” value in [1] is “reduce H1975 cell proliferation in a dose dependent manner; also recorded: significantly (**p<0.01) reduced cell proliferation”. Moreover, the “MDA-MB-231 cell survival/growth (MTT)” value in experiment [2] was “significantly (**p<0.01) reduced cell survival”.

Regarding `O=C(Nc1ccc(OCc2ccccc2)c(Cl)c1)C(=O)Nc1ccccc1NC(=O)C(c1ccccc1)S(=O)(=O)O` (stereo not shown) [Compound L319-21-M50], the IC50 at TbPTP1 (pNPP at Km, read-out: IC50 TbPTP1) was over 50 µM; on PEST (IC50 PEST) it was over 50 µM; against FAP1, 39 µM; on VHX it was over 50 µM; against Ssu72, over 50 µM.

With `O=C(Nc1ccc(-n2ccnc2)cc1)C(c1ccccc1)S(=O)(=O)O` (stereo not shown) [Compound L319M63], the IC50 is 7.7 µM on LMWPTP (pH 7); over 100 µM against TbPTP1 (IC50 TbPTP1, pNPP at Km); over 200 µM against SHP1; over 100 µM on STEP; over 200 µM against VHX.

Take `O=C(O)Cc1csc(NC(=O)C(c2ccccc2)S(=O)(=O)O)n1` (stereo not shown) [Compound L319N72]: the half-inhibitory concentration (IC50) against LMWPTP (pNPP at Km, pH 7.0, 25° C.) was 98.1 µM; at Laforin, 4.8 µM; at PEST (pNPP at Km, pH 7.0, 25° C., read-out: IC50 PEST), over 200 µM.

The compound `CO[C@@]1(NC(=O)C(C(=O)O)c2ccc(O)cc2)C(=O)N2C(C(=O)O)=C(CSc3nnnn3C)CO[C@@H]21` (stereo partly shown) [moxalactam, reference compound] returned an IC50 against SHP1 of 170 µM.
